Data reported in patent publication US20230146795A1, “ENHANCEMENT OF ANTI-TUMOR ACTIVITY OF SHP2 INHIBITOR PYRIMIDINONE IN COMBINATION WITH NOVEL CANCER MEDICINES IN CANCERS” (TAIHO PHARMACEUTICAL CO., LTD., priority 2020, published 2023).
One block for each compound: values may come before it.

Assays:
[1] = molecular target: T1, SHP2 (Homo sapiens, UniProt Q06124); assay: SHP2 biochemical assay (DiFMUP conversion); conditions: 10 pM SHP2, 0.25 μM pIRS1 peptide, 50 μM DiFMUP
T1 sequence (Q06124 1-593): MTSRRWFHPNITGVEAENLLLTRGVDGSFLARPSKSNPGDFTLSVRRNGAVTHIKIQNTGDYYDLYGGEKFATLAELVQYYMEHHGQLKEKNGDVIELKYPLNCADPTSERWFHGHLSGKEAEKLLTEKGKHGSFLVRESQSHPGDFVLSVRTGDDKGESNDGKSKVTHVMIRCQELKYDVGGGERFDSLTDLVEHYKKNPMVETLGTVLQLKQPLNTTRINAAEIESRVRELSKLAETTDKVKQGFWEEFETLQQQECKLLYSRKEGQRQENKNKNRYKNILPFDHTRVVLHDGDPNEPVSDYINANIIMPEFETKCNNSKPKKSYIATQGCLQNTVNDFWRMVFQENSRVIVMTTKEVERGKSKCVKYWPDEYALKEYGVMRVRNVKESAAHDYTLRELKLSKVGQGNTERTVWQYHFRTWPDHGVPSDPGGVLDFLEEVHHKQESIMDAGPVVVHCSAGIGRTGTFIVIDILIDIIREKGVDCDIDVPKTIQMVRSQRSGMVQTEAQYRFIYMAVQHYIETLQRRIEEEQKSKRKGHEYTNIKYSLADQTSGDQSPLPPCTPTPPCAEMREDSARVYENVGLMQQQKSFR
Procedure: (1) SHP2 Biochemical Assay SHP2 Activity was Monitored by Measuring the Conversion of the Surrogate Substrate 6,8-Difluoromethylumbelliferyl Phosphate (DiEMUP) to the Fluorescent Product, 6,8-Difluoromethylumbelliferone (DiFMU).
SHP2 was pre-incubated with test compounds and the activating peptide pIRS1 (H2N-LN(pY) IDLDLV-(PEG) 8-LST(pY)ASINFQK-amide) for 30 min, prior to addition of the 6,8-difluoromethylumbelliferyl phosphate (DiEMUP), (Thermo Fisher D6567). Final assay concentrations were 10 pM SHP2, 0.25 μM pIRS1 peptide, 50 μM DiFMUP, 25 mM Bis-Tris propane, pH 7.0, 150 mM NaCl, 0.05% (v/v) Tween-20, 0.5 mM TCEP and 5% (v/v) DMSO. Rates of reaction were then measured over 30 min by monitoring fluorescence on a BMG Pherastar reader at excitation 360 nm/emission 450 nm. IC50 values were calculated in singlicate from the normalized dose-response plots using four parameter logistic curve fit. The Experiment for each compound was carried out in one time or multiple times, and the IC50 values were shown as a single value (for a compound measured in a single experiment) or an average value (for a compound measured in multiple experiments).

[2] = system: NCI-H358; assay: Anti-proliferation assay (CellTiter-Glo 2.0), combination index, NCI-H358; assay type: cell-based
Summary of the method: (§1)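 Cells were seeded at 500 cells/well in medium with 10% FBS and exposed to agents at 8 concentrations including 0 nM, for 3 days at 37° C under 5% CO2. Survival was read by CellTiter-Glo 2.0 luminescence, and combination index was determined at each combined concentration.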

[3] = system: MKN45; assay: Anti-proliferation assay (CellTiter-Glo 2.0), combination index, MKN45; assay type: cell-based
Summary of the method: as §1

[4] = system: NCI-H23; assay: Anti-proliferation assay (CellTiter-Glo 2.0), combination index, NCI-H23; assay type: cell-based
Procedure: (§2) Cell lines were obtained from ATCC or Health Science Research Resources Bank.
Each cell lines were collected by ordinary method, then suspended in indicated medium containing 10% fetal bovine serum in table 3. The number of cells seeded per well was set to 500 cells/20 μL. […] The concentration of each anti-cancer reagents set to 8 concentrations including 0 nM. After adding the medicine to the cells, the cells were further incubated at 37° C. for 3 days under 5% CO2. Cell survival rates were calculated by adding 20 μL of CellTiter-Glo(registered trademark) 2. 0 (Promega) solution to each well, incubating the cells at room temperature for 10 minutes, and then measuring the chemiluminescence intensity of each well using a plate reader (ARVO).
(§3) A combination index (CI) value at each combined concentration of the medicines was determined.

[5] = system: MV-4-11; assay: Anti-proliferation assay (CellTiter-Glo 2.0), combination index, MV-4-11; assay type: cell-based
Summary of the method: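 Cells were seeded at 500/well in 10% FBS medium and grown 24 h at 37°C before dosing. Compound 1 (10 concentrations) was combined with a second antitumor agent (8 concentrations including 0 nM) for 3 days. Viability was read by CellTiter-Glo 2.0 luminescence, and a combination index was calculated at each concentration pair.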

[6] = system: RMG-I; assay: Anti-proliferation assay (CellTiter-Glo 2.0), combination index, RMG-I; assay type: cell-based
Procedure: as §2
384 well culture plate (781086, Greiner Bio-One International) was used for cell survival rate measurement assay. Each cell lines were collected by ordinary method, then suspended in indicated medium containing 10% fetal bovine serum in table 3. The number of cells seeded per well was set to 500 cells/20 μL. After incubation at 37° C. for 24 hours under 5% CO2, Compound 1 and additional compound having an antitumor effect or a vehicle (DMSO) was added to each well by using D300e Digital Dispenser (Tecan). The concentration of Compound 1 was set to 10 concentrations. The concentration of each anti-cancer reagents set to 8 concentrations including 0 nM. After adding the medicine to the cells, the cells were further incubated at 37° C. for 3 days under 5% CO2. Cell survival rates were calculated by adding 20 μL of CellTiter-Glo(registered trademark) 2. 0 (Promega) solution to each well, incubating the cells at room temperature for 10 minutes, and then measuring the chemiluminescence intensity of each well using a plate reader (ARVO).
as §3

[7] = Compound 1 123 + combination drug 370 nmol/L (1:3)
[8] = Compound 1 370 + combination drug 1110 nmol/L (1:3)
[9] = Compound 1 1110 + combination drug 3330 nmol/L (1:3)
[10] = Compound 1 3330 + combination drug 10000 nmol/L (1:3)
[11] = Compound 1 1.52 + combination drug 41.2 nmol/L (1:27)
[12] = Compound 1 4.57 + combination drug 123 nmol/L (1:27)
[13] = Compound 1 13.7 + combination drug 370 nmol/L (1:27)
[14] = Compound 1 41.2 + combination drug 1110 nmol/L (1:27)
[15] = Compound 1 123 + combination drug 3330 nmol/L (1:27)
[16] = Compound 1 370 + combination drug 10000 nmol/L (1:27)
[17] = Compound 1 41.2 + combination drug 123 nmol/L (1:3)
[18] = Compound 1 1.52 + combination drug 123 nmol/L (1:81)
[19] = Compound 1 4.57 + combination drug 370 nmol/L (1:81)
[20] = Compound 1 13.7 + combination drug 1110 nmol/L (1:81)
[21] = Compound 1 41.2 + combination drug 3330 nmol/L (1:81)
[22] = Compound 1 123 + combination drug 10000 nmol/L (1:81)

SMILES: Cn1nc2ccc(-c3c[nH]c4nc(N5[C@H]6CC[C@@H]5[C@H](N)C6)n(C)c(=O)c34)c(F)c2c1Cl [Compound 6, 2-((1R,2R,4S)-2-amino-7-azabicyclo[2.2.1]heptan-7-yl)-5-(3-chloro-4-fluoro-2-methyl-2H-indazol-5-yl)-3-methyl-3,7-dihydro-4H-pyrrolo[2,3-d]pyrimidin-4-one]
- IC50 [1]: 2.8 nM

SMILES: CCn1cc2c(Cl)c(-c3c[nH]c4nc(N5[C@H]6CC[C@@H]5[C@H](N)C6)n(C)c(=O)c34)ccc2n1 [Compound 7, 2-((1R,2R,4S)-2-amino-7-azabicyclo[2.2.1]heptan-7-yl)-5-(4-chloro-2-ethyl-2H-indazol-5-yl)-3-methyl-3,7-dihydro-4H-pyrrolo[2,3-d]pyrimidin-4-one]
- IC50 [1]: 3.3 nM

SMILES: NC1(c2ccc(-c3nc4ccn5c(=O)[nH]nc5c4cc3-c3ccccc3)cc2)CCC1 [MK-2206, 8-[4-(1-aminocyclobutyl)phenyl]-9-phenyl-1,2,4-triazolo[3,4-f][1,6]naphthyridin-3(2H)-one]
- CI [2, 7]: 0.477
- Fa [2, 7]: 0.2532
- CI [2, 8]: 0.204
- Fa [2, 8]: 0.4838
- CI [2, 9]: 0.301
- Fa [2, 9]: 0.5761
- CI [2, 10]: 0.213
- Fa [2, 10]: 0.7446
- CI [3, 11]: 0.315
- Fa [3, 11]: 0.1506
- CI [3, 12]: 0.564
- Fa [3, 12]: 0.1981
- CI [3, 13]: 0.408
- Fa [3, 13]: 0.3872
- CI [3, 14]: 0.383
- Fa [3, 14]: 0.5869
- CI [3, 15]: 0.420
- Fa [3, 15]: 0.7489
- CI [3, 16]: 0.608
- Fa [3, 16]: 0.8398
- Description (combinatory effect by CI) ([3]; Compound 1:combination drug molar ratio 1:27): Synergy (0.3-0.7)
- CI [4, 17]: 0.783
- Fa [4, 17]: 0.1015
- CI [4, 7]: 0.265
- Fa [4, 7]: 0.2110
- CI [4, 8]: 0.232
- Fa [4, 8]: 0.3486
- CI [4, 9]: 0.295
- Fa [4, 9]: 0.5074
- CI [4, 10]: 0.340
- Fa [4, 10]: 0.7061
- CI [5, 18]: 0.315
- Fa [5, 18]: 0.2639
- CI [5, 19]: 0.520
- Fa [5, 19]: 0.3899
- CI [5, 20]: 0.446
- Fa [5, 20]: 0.6851
- CI [5, 21]: 0.318
- Fa [5, 21]: 0.9006
- CI [5, 22]: 0.137
- Fa [5, 22]: 0.9846
- CI [6, 18]: 0.724
- Fa [6, 18]: 0.1204
- CI [6, 19]: 0.398
- Fa [6, 19]: 0.2545
- CI [6, 20]: 0.314
- Fa [6, 20]: 0.4133
- CI [6, 21]: 0.320
- Fa [6, 21]: 0.5593
- CI [6, 22]: 0.353
- Fa [6, 22]: 0.6868
- Description (combinatory effect by CI) ([6]; Compound 1:combination drug molar ratio 1:81): Synergy (0.3-0.7)

More lines, now with the values ahead:

- IC50 [1]: 2.6 nM
SMILES: Cn1nc2ccc(-c3n[nH]c4nc(N5C[C@H]6CC[C@@H]5[C@@H]6N)n(C)c(=O)c34)c(Cl)c2c1Cl [Compound 2, 6-((1R,4R,7R)-7-amino-2-azabicyclo[2.2.1]heptan-2-yl)-3-(3,4-dichloro-2-methyl-2H-indazol-5-yl)-5-methyl-1,5-dihydro-4H-pyrazolo[3,4-d]pyrimidin-4-one]

- IC50 [1]: 3.7 nM
SMILES: Cn1cc2c(Cl)c(-c3c[nH]c4nc(N5C[C@H]6CC[C@@H]5[C@@H]6N)n(C)c(=O)c34)ccc2n1 [Compound 4, 2-((1R,4R,7R)-7-amino-2-azabicyclo[2.2.1]heptan-2-yl)-5-(4-chloro-2-methyl-2H-indazol-5-yl)-3-methyl-3,7-dihydro-4H-pyrrolo[2,3-d]pyrimidin-4-one]

- IC50 [1]: 1.5 nM
SMILES: Cn1nc2ccc(-c3c[nH]c4nc(N5C[C@H]6CC[C@@H]5[C@@H]6N)n(C)c(=O)c34)c(Cl)c2c1Cl [Compound 5, 2-((1R,4R,7R)-7-amino-2-azabicyclo[2.2.1]heptan-2-yl)-5-(3,4-dichloro-2-methyl-2H-indazol-5-yl)-3-methyl-3,7-dihydro-4H-pyrrolo[2,3-d]pyrimidin-4-one]
